Assay results reported in article PMC5773577, “Novel Miniature Membrane Active Lipopeptidomimetics against Planktonic and Biofilm Embedded Methicillin-Resistant Staphylococcus aureus” (Scientific Reports, 2018).
In brackets after ≈: the same amount, converted by molar mass.

Experiments:
MRSA (ATCC 33591) = assay: microbe, parasite or virus in culture; format: cell-based, Staphylococcus aureus; conditions: Staphylococcus aureus, MHB, 2–5 × 10^5 CFU/mL, 16–18 h, 37 °C, OD600, read-out: Minimum inhibitory concentration, MIC
Procedure: (§1) The antibacterial activity was evaluated as MIC using slight modifications to a serial broth micro dilution method as reported previously[66],[67]. Briefly, to each treatment well of the 96-well plate (Corning Incorporated, USA) 10 μL of peptidomimetic/antibiotic was added and subsequently diluted serial 2-fold in 0.2% BSA (in 0.01% acetic acid). Then to each well of the first 11 columns 100 μL of mid-log phase bacterial suspension in MHB medium was added to get 2–5 × 10^5 CFU/mL. Cultures without test peptidomimetics/antibiotics were used as growth control. Uninoculated MHB medium was used as negative control. The microtitre plates were incubated overnight with agitation (180 rpm) at 37 °C. After 16–18 h incubation, absorbance was read at 600 nm using an ELISA plate reader (Molecular Devices, Sunnyvale, CA, USA). The experiments were carried out in duplicate on at least three different days.

MRSA (ATCC 43300) = assay: microbe, parasite or virus in culture; format: cell-based, Staphylococcus aureus; conditions: Staphylococcus aureus, MHB, 2–5 × 10^5 CFU/mL, 16–18 h, 37 °C, OD600, read-out: Minimum inhibitory concentration, MIC
Procedure: as §1

S. aureus (ATCC 25923) = assay: microbe, parasite or virus in culture; format: cell-based, Staphylococcus aureus; conditions: Staphylococcus aureus, ATCC25923, MHB, 2–5 × 10^5 CFU/mL, 16–18 h, 37 °C, OD600, read-out: Minimum inhibitory concentration, MIC
Procedure: as §1

S. aureus (ATCC 29213) = assay: microbe, parasite or virus in culture; format: cell-based, Staphylococcus aureus; conditions: Staphylococcus aureus, ATCC29213, MHB, 2–5 × 10^5 CFU/mL, 16–18 h, 37 °C, OD600, duplicate, at least three days, read-out: Minimum inhibitory concentration, MIC
Procedure: as §1

S. aureus (ISP479C) = assay: microbe, parasite or virus in culture; format: cell-based, Staphylococcus aureus; conditions: Staphylococcus aureus, MHB, 2–5 × 10^5 CFU/mL, 16–18 h, 37 °C, OD600, read-out: Minimum inhibitory concentration, MIC
Procedure: as §1

[1] = system: Methicillin-resistant S. epidermidis (ATCC 35984); assay: microbe, parasite or virus in culture; format: cell-based, Staphylococcus epidermidis; conditions: Staphylococcus epidermidis, ATCC 35984 / MRSE; MRSE ATCC 35984; MHB, 2–5 × 10^5 CFU/mL, 16–18 h, 37 °C, OD600; read-out: Minimum inhibitory concentration, MIC
Procedure: as §1

MRSA ATCC 33591 [2] = assay: Membrane depolarization assay, DiSC3(5); format: cell-based, Staphylococcus aureus; conditions: for % depolarization relative to melittin control (10 μM, set as 100%): 2 min, DiSC3(5), HEPES-glucose buffer pH 7.2, 37 °C, mean ± S.D., two days
Procedure: The cytoplasmic membrane depolarization in MRSA ATCC 33591 strain was measured using membrane potential sensitive dye 3,3′-dipropylthiacarbocyanine iodide (DiSC3(5)) with a protocol described previously with slight modifications[23],[48]. Briefly, exponential phase cells grown in MHB were harvested by centrifugation, washed and re-suspended in respiration buffer (5 mM HEPES, 20 mM glucose, pH 7.2) to 2.5 × 10^6 CFU/mL. The cells were divided into 1 mL aliquots and incubated with 3.6 μM of DiSC3(5) (in dark) for 30 min to get steady baseline fluorescence intensity. The dye-loaded cells (800 μL) were then treated with peptidomimetics at respective 1× and 4× MIC concentrations (2–20 μL) and consequent fluorescence increase after 2 min of addition was measured in a Shimadzu RF-5301 PC spectrofluorimeter. As controls IL, melittin and VAN were also assayed under identical conditions. The samples were excited at 622 nm and emission was recorded between 650–700 nm with 3 nm slit width for both excitation and emission. The temperature was maintained at 37 °C throughout the experiment. Depolarization kinetics was measured at 4 × MIC of test agents for 5 min. The experiment was repeated on two different days and for Fig. 3 panel (A) mean ± S.D. data for % depolarization relative to melittin control (10 μM) set as 100% is presented here. For panel (B) representative data is shown here. The viability of dye-loaded cells corresponding to depolarization experiment at 4 × MIC concentration was also measured by plating the diluted aliquots onto BHI agar plates.

MRSA ATCC 33591 [3] = assay: Resistance development over 17 serial passages at sub-MIC; format: cell-based, Staphylococcus aureus; conditions: at the 11th passage, constant up to the 17th passage
Procedure: For the experiment, a method as described previously was used with slight modifications. Briefly, for the experiment, on day 1 the initial MICs of all test agents were determined using routine MIC experiment protocol as described earlier. Next day, bacterial cells (100 μL) from the wells with concentrations 2–4 fold less than the MIC value for each test agent were used to set up fresh mid-log phase cultures in MHB medium for setting up the MIC plate. This was repeated for a total of 17 sub-lethal treatments with each antimicrobial agent. For every passage, corresponding glycerol stocks (15% v/v) were made for each culture and were kept at −80 °C for future use.

SMILES: CN[C@H](CC(C)C)C(=O)N[C@H]1C(=O)N[C@@H](CC(N)=O)C(=O)N[C@H]2C(=O)N[C@H]3C(=O)N[C@H](C(=O)N[C@H](C(=O)O)c4cc(O)cc(O)c4-c4cc3ccc4O)[C@H](O)c3ccc(c(Cl)c3)Oc3cc2cc(c3O[C@@H]2O[C@H](CO)[C@@H](O)[C@H](O)[C@H]2O[C@H]2C[C@](C)(N)[C@H](O)[C@H](C)O2)Oc2ccc(cc2Cl)[C@H]1O [VAN, vancomycin]
- MIC (MRSA (ATCC 33591)): 1.4 µg/mL (≈ 0.966 µM)
- MIC (MRSA (ATCC 43300)): 0.7 µg/mL (≈ 0.483 µM)
- MIC (S. aureus (ATCC 25923)): 1.4 µg/mL (≈ 0.966 µM)
- MIC (S. aureus (ATCC 29213)): 0.7 µg/mL (≈ 0.483 µM)
- MIC (S. aureus (ISP479C)): 0.3 µg/mL (≈ 0.207 µM)
- MIC [1]: 2.8 µg/mL (≈ 1.93 µM)
- Depolarization kinetics: time to increase in relative fluorescence intensity (RFI) (MRSA ATCC 33591 [2]; 4 × MIC, monitored for 5 min): RFI values similar to untreated control cells
- % depolarization relative to melittin control (10 μM, set as 100%) (MRSA ATCC 33591 [2]; at 4 × MIC): 4.7 ± 4.1%
- % depolarization relative to melittin control (10 μM, set as 100%) (MRSA ATCC 33591 [2]; at MIC): 2.9 ± 4.8%
- fold increase in MIC (MRSA ATCC 33591 [3]): 8 fold
